Values belong to the compound of their own block, whether it stands above or below them.
Tests used:
[1] = solubility / solubilization in the MCT carrier oil; conditions: for stable solution concentration in MCTs: MCTs (0.0-6.0% C6, 6.0-60% C8, 6.0-60% C10), stirring at 85 degrees Celsius for 5 minutes
Description: The process for solubilizing target compounds according to the disclosure comprises, in particular, the following steps: (a) preparation of a carrier liquid solution comprising a mixture of medium-chain triglycerides, an amount of this carrier liquid solution is used, the amount depending on the amount of target compound to be solubilized; (b) admixing the carrier liquid solution with the target compound; (c) and, optionally, admixing a stabilizing compound to the carrier liquid/target compound. In some cases, depending on the compound to be solubilized, solvents that dissolve both polar and non-polar compounds such as ethanol, methanol, acetonitrile, 1-butanol or isopropyl alcohol, may be added to encourage solubilization, and then removed by vacuum evaporation. As another aspect, during compounding, dry inert gas may be filtered through the mixture to remove moisture.
Riboflavin is known to have poor solubility in aqueous solutions and organic solvents. […] It may be desirable to solubilize a higher concentration of riboflavin in an ENDS. […] This mixture may then be added to MCTs (for example 0.0-6.0% C6, 6.0-60% C8, and/or 6.0-60% C10), homogenized for 5 minutes and subsequently heated to approximately 85 degrees Celsius at 250 mb (or 250 hPa) pressure in a rotary evaporator to drive off the methanol.
Another example may be sulbutiamine. Sulbutiamine is a disulfide dimer of thiamine. […] It may be desirable to provide sulbutiamine in an ENDS. […]

[2] = cited from earlier work
[3] = cited from earlier work; remark: listed apart in the source
[4] = cited from earlier work; remark: listed apart in the source
[5] = cited from earlier work; remark: listed apart in the source

SMILES: CC1=C[C@H](O)CC(C)(C)[C@H]1/C=C/C(C)=C/C=C/C(C)=C/C=C/C=C(C)/C=C/C=C(C)/C=C/C1=C(C)C[C@@H](O)CC1(C)C [lutein]
stable solution concentration in MCTs [1]: 200 mg/mL

SMILES: CC(C)=CCC/C(C)=C/C=C/C(C)=C/C=C/C(C)=C/C=C/C=C(C)/C=C/C=C(C)/C=C/C=C(\C)CCC=C(C)C [lycopene]
stable solution concentration in MCTs [1]: 200 mg/mL

SMILES: C=C1CC[C@H](O)C/C1=C/C=C1\CCC[C@]2(C)[C@@H]([C@H](C)CCCC(C)C)CC[C@@H]12 [vitamin-D3]
miscibility with the carrier oil ([1]; simple admixing with the carrier oil): any proportion

SMILES: C=C(C)[C@@H]1CCC(C)=C[C@H]1c1c(O)cc(CCCCC)cc1O [Cannabidiol, cannabidiol, reference compound]
solubilized amount in MCTs ([1]; MCTs, stirring at 45 to 65 degrees Celsius for 5 minutes): up to 80 percent v/v

SMILES: O=C(O)Cc1ccccc1 [phenylacetic acid]
log P (partition co-efficient) [4]: comparable to benzoic acid
pKa [5]: comparable to benzoic acid

Further lines, with some results ahead:

stable solution concentration in MCTs [1]: 200 mg/mL
SMILES: CCCCCCCCCCCCCCCC(=O)OC[C@H](O)[C@H]1OC(=O)C(O)=C1O [ascorbyl palmitate]

solubility in MCTs versus aqueous solutions [1]: an order of magnitude greater solubility
SMILES: Cc1cc2nc3c(=O)[nH]c(=O)nc-3n(C[C@H](O)[C@H](O)[C@H](O)CO)c2cc1C [riboflavin]
solubility in vegetable glycerin, propylene glycol and water ([2]; vegetable glycerin, propylene glycol and water): less than 0.2 mg/ml

quantity incorporated into the carrier oil by admixing [1]: < 2 mg/mL
SMILES: CC1=C(/C=C/C(C)=C/C=C/C(C)=C/C=C/C=C(C)/C=C/C=C(C)/C=C/C2=C(C)C(=O)[C@@H](O)CC2(C)C)C(C)(C)C[C@H](O)C1=O [Astaxanthin]

quantity incorporated into the carrier oil by admixing [1]: < 2 mg/mL
SMILES: CC1=CCCC(C)(C)C1/C=C/C(C)=C/C=C/C(C)=C/C=C/C=C(C)/C=C/C=C(C)/C=C/C1=C(C)CCCC1(C)C (stereo not drawn) [alpha-carotene]

stable solution concentration in MCTs [1]: 200 mg/mL
SMILES: CC(=C(CCOC(=O)C(C)C)SSC(CCOC(=O)C(C)C)=C(C)N(C=O)Cc1cnc(C)nc1N)N(C=O)Cc1cnc(C)nc1N (stereo in doubt) [sulbutiamine, reference compound]
solubility in fats [3]: highly soluble
solubility in aqueous solutions ([2]; aqueous solutions): insoluble

Source: patent publication US10376586B2, “Method and compositions for solubilizing non-polar constituents” (Entourage Bioscience, LLC, priority 2016, dated 2019)
